Experimental data published in publication PMC10094648, “Short, Lipidated Dendrimeric γ-AApeptides as New Antimicrobial Peptidomimetics” (International Journal of Molecular Sciences, 2023).

The compounds below were run on MRSA (ATCC 33591) (assay: not given). Settings: ATCC 33591, 16 h.
Type: cell-based, methicillin-resistant Staphylococcus aureus
Protocol: (§1) Chemical reagents and solvents were bought from Sigma Aldrich, Oakwood, TCI, and Chem-Impex. Final products were purified with Waters Breeze 2 HPLC and lyophilized using Labconco lyophilizer. HPLC traces of the final product were collected using 5–95% acetonitrile in water with 0.1% HPLC-grade TFA for at least 40 min. The nuclear magnetic resonance (NMR) data were collected using the Agilent 600 MHz NEO instrument. High-resolution mass spectra of compounds (Table S1) were collected using an Agilent Technologies 6540 UHD accurate-mass Q-TOF LC/MS spectrometer. Antibacterial assays and mechanism of action studies were performed using a Biotec multimode microplate reader synergy H4. Six different species of bacteria were used for bacteria assay tests, such as MRSA (ATCC 33591), MRSE (RP62A), VREF (ATCC 700802), E. coli (ATCC 25922), K. pneumoniae (ATCC 13383), and P. aeruginosa (ATCC 27853).
(§2) Concisely, E. coli, K. pneumoniae, P. aeruginosa, MRSA, MRSE, and VREF were cultivated in 37 °C TSB medium for 16 h. Subsequently, 4 ml of new TSB medium was added to 100 μL of cultivated bacterial solution and incubated for another 6 h to reach the mid-log phase. Next, 96-well plates were injected with 50 μL of bacterial solution that reached mid-log phase and 50 μL of compounds with different concentrations, which ranged from 0.75–25 μg/mL. Then, the 96-wells plates were incubated for another 16 h at 37 °C. After 16 h, MICs were determined by a multimode microplate reader.
In the case of `CCCCCCCCCCCCCCCC(=O)N[C@@H](CO)CN(CC(N)=O)C(=O)CCN(C[C@@H](N)CCCCN)C(=O)CCN` [YW-5], the “MIC, Gram-Positive (+), MRSA” value is reported as 1.5 to 3 µg/mL.
With `CCCCCCCCCCCCCCCC(=O)N[C@@H](Cc1ccccc1)CN(CC(N)=O)C(=O)CCN(C[C@@H](N)CCCCN)C(=O)CCN` [YW-2] the “MIC, Gram-Positive (+), MRSA” value was 1.5 to 3 µg/mL.

Same assay, conditions: TSB medium, 16 h at 37 °C, compounds 0.75–25 μg/mL, microplate reader
With `CCCCCCCCCCCCCCCC(=O)N[C@@H](CCCCN)CN(CC(N)=O)C(=O)CCN(C[C@@H](N)CCCCN)C(=O)CCN` [YW-6] the “MIC, Gram-Positive (+), MRSA” value was 0.75 to 1.5 µg/mL.
`CCCCCCCCCCCCCCCC(=O)N[C@@H](Cc1ccc(O)cc1)CN(CC(N)=O)C(=O)CCN(C[C@@H](N)CCCCN)C(=O)CCN` [YW-4] was tested, and the “MIC, Gram-Positive (+), MRSA” value was 0.75 to 1.5 µg/mL.
For `CCCCCCCCCCCCCCCC(=O)N[C@@H](CCCCNC(=N)N)CN(CC(N)=O)C(=O)CCN(C[C@@H](N)CCCCN)C(=O)CCN` [YW-7], the “MIC, Gram-Positive (+), MRSA” value was 0.75 to 1.5 µg/mL.
In the case of `CCCCCCCCCCCCCCCC(=O)N[C@@H](C)CN(CC(N)=O)C(=O)CCN(C[C@@H](N)CCCCN)C(=O)CCN` [YW-3], the “MIC, Gram-Positive (+), MRSA” value is reported as 0.75 to 1.5 µg/mL.

What follows are compounds tested on E. coli (ATCC 25922) (assay: not given). Settings: ATCC 25922, 16 h.
Type: cell-based
Protocol: as §1, §2
`CCCCCCCCCCCCCCCC(=O)N[C@@H](CCCCN)CN(CC(N)=O)C(=O)CCN(C[C@@H](N)CCCCN)C(=O)CCN` [YW-6] was tested, and the “MIC, Gram-Negative (−), E. coli” value was 6 to 12.5 µg/mL.
For `CCCCCCCCCCCCCCCC(=O)N[C@@H](CO)CN(CC(N)=O)C(=O)CCN(C[C@@H](N)CCCCN)C(=O)CCN` [YW-5], the “MIC, Gram-Negative (−), E. coli” value was 6 to 12.5 µg/mL.
For `CCCCCCCCCCCCCCCC(=O)N[C@@H](Cc1ccc(O)cc1)CN(CC(N)=O)C(=O)CCN(C[C@@H](N)CCCCN)C(=O)CCN` [YW-4], the “MIC, Gram-Negative (−), E. coli” value was 3.0 to 6.0 µg/mL.
In the case of `CCCCCCCCCCCCCCCC(=O)N[C@@H](CCCCNC(=N)N)CN(CC(N)=O)C(=O)CCN(C[C@@H](N)CCCCN)C(=O)CCN` [YW-7], the “MIC, Gram-Negative (−), E. coli” value is reported as 3.0 to 6.0 µg/mL.
In the case of `CCCCCCCCCCCCCCCC(=O)N[C@@H](C)CN(CC(N)=O)C(=O)CCN(C[C@@H](N)CCCCN)C(=O)CCN` [YW-3], the “MIC, Gram-Negative (−), E. coli” value is reported as 3.0 to 6.0 µg/mL.
`CCCCCCCCCCCCCCCC(=O)N[C@@H](Cc1ccccc1)CN(CC(N)=O)C(=O)CCN(C[C@@H](N)CCCCN)C(=O)CCN` [YW-2] was tested, and the “MIC, Gram-Negative (−), E. coli” value was 3.0 to 6.0 µg/mL.

The compounds below were run on E.F. (VREF, ATCC 700802) (assay: not given). Settings: ATCC 700802, 16 h.
Type: cell-based
Protocol: as §1, §2
With `CCCCCCCCCCCCCCCC(=O)N[C@@H](Cc1ccc(O)cc1)CN(CC(N)=O)C(=O)CCN(C[C@@H](N)CCCCN)C(=O)CCN` [YW-4] the “MIC, Gram-Positive (+), E.F.” value was 3.0 to 6.0 µg/mL.
`CCCCCCCCCCCCCCCC(=O)N[C@@H](CCCCNC(=N)N)CN(CC(N)=O)C(=O)CCN(C[C@@H](N)CCCCN)C(=O)CCN` [YW-7] was tested, and the “MIC, Gram-Positive (+), E.F.” value was 3.0 to 6.0 µg/mL.
In the case of `CCCCCCCCCCCCCCCC(=O)N[C@@H](C)CN(CC(N)=O)C(=O)CCN(C[C@@H](N)CCCCN)C(=O)CCN` [YW-3], the “MIC, Gram-Positive (+), E.F.” value is reported as 3.0 to 6.0 µg/mL.
`CCCCCCCCCCCCCCCC(=O)N[C@@H](Cc1ccccc1)CN(CC(N)=O)C(=O)CCN(C[C@@H](N)CCCCN)C(=O)CCN` [YW-2] was tested, and the “MIC, Gram-Positive (+), E.F.” value was 1.5 to 3 µg/mL.

What follows are compounds tested on K. pneumoniae (ATCC 13383) (assay: not given). Settings: ATCC 13383, 16 h.
Type: cell-based
Protocol: as §1, §2
In the case of `CCCCCCCCCCCCCCCC(=O)N[C@@H](Cc1ccc(O)cc1)CN(CC(N)=O)C(=O)CCN(C[C@@H](N)CCCCN)C(=O)CCN` [YW-4], the “MIC, Gram-Negative (−), K.P.” value is reported as greater than 25 µg/mL.
In the case of `CCCCCCCCCCCCCCCC(=O)N[C@@H](CCCCNC(=N)N)CN(CC(N)=O)C(=O)CCN(C[C@@H](N)CCCCN)C(=O)CCN` [YW-7], the “MIC, Gram-Negative (−), K.P.” value is reported as greater than 25 µg/mL.
`CCCCCCCCCCCCCCCC(=O)N[C@@H](C)CN(CC(N)=O)C(=O)CCN(C[C@@H](N)CCCCN)C(=O)CCN` [YW-3] was tested, and the “MIC, Gram-Negative (−), K.P.” value was greater than 25 µg/mL.
With `CCCCCCCCCCCCCCCC(=O)N[C@@H](Cc1ccccc1)CN(CC(N)=O)C(=O)CCN(C[C@@H](N)CCCCN)C(=O)CCN` [YW-2] the “MIC, Gram-Negative (−), K.P.” value was 6 to 12.5 µg/mL.

What follows are compounds tested on MRSE (RP62A) (assay: not given). Settings: 16 h.
Type: cell-based
Protocol: as §1, §2
For `CCCCCCCCCCCCCCCC(=O)N[C@@H](Cc1ccc(O)cc1)CN(CC(N)=O)C(=O)CCN(C[C@@H](N)CCCCN)C(=O)CCN` [YW-4], the “MIC, Gram-Positive (+), MRSE” value was 3.0 to 6.0 µg/mL.
In the case of `CCCCCCCCCCCCCCCC(=O)N[C@@H](CCCCNC(=N)N)CN(CC(N)=O)C(=O)CCN(C[C@@H](N)CCCCN)C(=O)CCN` [YW-7], the “MIC, Gram-Positive (+), MRSE” value is reported as 3.0 to 6.0 µg/mL.
In the case of `CCCCCCCCCCCCCCCC(=O)N[C@@H](C)CN(CC(N)=O)C(=O)CCN(C[C@@H](N)CCCCN)C(=O)CCN` [YW-3], the “MIC, Gram-Positive (+), MRSE” value is reported as 6 to 12.5 µg/mL.
For `CCCCCCCCCCCCCCCC(=O)N[C@@H](Cc1ccccc1)CN(CC(N)=O)C(=O)CCN(C[C@@H](N)CCCCN)C(=O)CCN` [YW-2], the “MIC, Gram-Positive (+), MRSE” value was 1.5 to 3 µg/mL.

The compounds below were run on P. aeruginosa (ATCC 27853) (assay: not given). Settings: ATCC 27853, 16 h.
Type: cell-based
Protocol: as §1, §2
In the case of `CCCCCCCCCCCCCCCC(=O)N[C@@H](Cc1ccc(O)cc1)CN(CC(N)=O)C(=O)CCN(C[C@@H](N)CCCCN)C(=O)CCN` [YW-4], the “MIC, Gram-Negative (−), P.A.” value is reported as greater than 25 µg/mL.
In the case of `CCCCCCCCCCCCCCCC(=O)N[C@@H](CCCCNC(=N)N)CN(CC(N)=O)C(=O)CCN(C[C@@H](N)CCCCN)C(=O)CCN` [YW-7], the “MIC, Gram-Negative (−), P.A.” value is reported as 12.5 to 25 µg/mL.
In the case of `CCCCCCCCCCCCCCCC(=O)N[C@@H](C)CN(CC(N)=O)C(=O)CCN(C[C@@H](N)CCCCN)C(=O)CCN` [YW-3], the “MIC, Gram-Negative (−), P.A.” value is reported as 6 to 12.5 µg/mL.
With `CCCCCCCCCCCCCCCC(=O)N[C@@H](Cc1ccccc1)CN(CC(N)=O)C(=O)CCN(C[C@@H](N)CCCCN)C(=O)CCN` [YW-2] the “MIC, Gram-Negative (−), P.A.” value was 12.5 to 25 µg/mL.

What follows are compounds tested on MRSA (assay: Drug resistance study (serial passages)). Settings: after 14 generations.
Type: cell-based, methicillin-resistant Staphylococcus aureus
Protocol: Since the abuse of antibiotics, antibacterial drug resistance has become an increasingly serious threat. Thus, it is of great importance to assess the drug resistance of newly developed lead compounds.
The first generation of MIC data of YW-1 against MRSA and E. coli was already obtained in an MIC study. Then, the MRSA of the first generation in the well next to the last clear well was diluted to the mid-log phase, and MICs were tested at 37 °C. This step was repeated for 14 passages. The data of drug resistance for E. coli were obtained using the same method with bacterial E. coli.
With `O=C(O)c1cn(C2CC2)c2cc(N3CCNCC3)c(F)cc2c1=O` [ciprofloxacin, reference compound] the “increase in MIC (drug resistance)” value was “about 100 fold”.

These compounds were tested on Human red blood cells (assay: not given). Settings: red cells of human, 1 h.
For `CCCCCCCCCCCCCCCC(=O)N[C@@H](CCCCN)CN(CC(N)=O)C(=O)CCN(C[C@@H](N)CCCCN)C(=O)CCN` [YW-6], the HC50 was greater than 125 µg/mL.
Compound `CCCCCCCCCCCCCCCC(=O)N[C@@H](CO)CN(CC(N)=O)C(=O)CCN(C[C@@H](N)CCCCN)C(=O)CCN` [YW-5] has an HC50 greater than 125 µg/mL.
`CCCCCCCCCCCCCCCC(=O)N[C@@H](Cc1ccc(O)cc1)CN(CC(N)=O)C(=O)CCN(C[C@@H](N)CCCCN)C(=O)CCN` [YW-4] gave an HC50 greater than 125 µg/mL.
For `CCCCCCCCCCCCCCCC(=O)N[C@@H](CCCCNC(=N)N)CN(CC(N)=O)C(=O)CCN(C[C@@H](N)CCCCN)C(=O)CCN` [YW-7], the HC50 was greater than 125 µg/mL.
For `CCCCCCCCCCCCCCCC(=O)N[C@@H](C)CN(CC(N)=O)C(=O)CCN(C[C@@H](N)CCCCN)C(=O)CCN` [YW-3], the HC50 was greater than 125 µg/mL.
For `CCCCCCCCCCCCCCCC(=O)N[C@@H](Cc1ccccc1)CN(CC(N)=O)C(=O)CCN(C[C@@H](N)CCCCN)C(=O)CCN` [YW-2], the HC50 was greater than 125 µg/mL.

What follows are compounds tested on Human red blood cells (assay: Hemolytic activity). Settings: HC50 over MIC against MRSA.
Protocol: Human red blood cells were washed with 1 × PBS buffer, then centrifuged at 700 g for 10 min. After discarding the top clear solution, the bottom cells were diluted to obtain 5% solution using 1 × PBS buffer.
Then, 50 μL of cell solution was injected into 96-well plates. Following this, 50 μL of synthesized compounds with different concentrations from 250 to 1.95 μg/mL were added into 96-well plates. Then, the mixture was incubated for 1 h at 37 °C. After centrifuging at 3500× g rpm for 10 min, 30 μL of the supernatant was transferred into a new 96-well plate with 100 μL of 1 × PBS buffer. With the same microplate reader, the data of absorbance at 540 nm were compared. Positive control: 2% Triton-100. Calculation formula: percentage of hemolysis = [(Absorbance of sample-Absorbance of PBS)/(Absorbance of Triton-Absorbance of PBS)] × 100
For `CCCCCCCCCCCCCCCC(=O)N[C@@H](CCCCN)CN(CC(N)=O)C(=O)CCN(C[C@@H](N)CCCCN)C(=O)CCN` [YW-6], the “Selectivity Index (HC50/MICMRSA)” value was greater than 83.3.
With `CCCCCCCCCCCCCCCC(=O)N[C@@H](CO)CN(CC(N)=O)C(=O)CCN(C[C@@H](N)CCCCN)C(=O)CCN` [YW-5] the “Selectivity Index (HC50/MICMRSA)” value was greater than 41.7.
With `CCCCCCCCCCCCCCCC(=O)N[C@@H](Cc1ccc(O)cc1)CN(CC(N)=O)C(=O)CCN(C[C@@H](N)CCCCN)C(=O)CCN` [YW-4] the “Selectivity Index (HC50/MICMRSA)” value was greater than 83.3.
`CCCCCCCCCCCCCCCC(=O)N[C@@H](CCCCNC(=N)N)CN(CC(N)=O)C(=O)CCN(C[C@@H](N)CCCCN)C(=O)CCN` [YW-7] was tested, and the “Selectivity Index (HC50/MICMRSA)” value was greater than 83.3.
For `CCCCCCCCCCCCCCCC(=O)N[C@@H](C)CN(CC(N)=O)C(=O)CCN(C[C@@H](N)CCCCN)C(=O)CCN` [YW-3], the “Selectivity Index (HC50/MICMRSA)” value was greater than 83.3.
`CCCCCCCCCCCCCCCC(=O)N[C@@H](Cc1ccccc1)CN(CC(N)=O)C(=O)CCN(C[C@@H](N)CCCCN)C(=O)CCN` [YW-2] was tested, and the “Selectivity Index (HC50/MICMRSA)” value was greater than 41.7.
